Data from publication PMC6371206 (ACS Pharmacology & Translational Science, 2019).

target: hD2R (D2SR), Gi1 activation (Homo sapiens, UniProt P14416); test: cell-based; type: cell-based; details: 30 min; hD2R in HEK293 cells; normalized to quinpirole Emax
Sequence (P14416 1-414 isoform P14416-2): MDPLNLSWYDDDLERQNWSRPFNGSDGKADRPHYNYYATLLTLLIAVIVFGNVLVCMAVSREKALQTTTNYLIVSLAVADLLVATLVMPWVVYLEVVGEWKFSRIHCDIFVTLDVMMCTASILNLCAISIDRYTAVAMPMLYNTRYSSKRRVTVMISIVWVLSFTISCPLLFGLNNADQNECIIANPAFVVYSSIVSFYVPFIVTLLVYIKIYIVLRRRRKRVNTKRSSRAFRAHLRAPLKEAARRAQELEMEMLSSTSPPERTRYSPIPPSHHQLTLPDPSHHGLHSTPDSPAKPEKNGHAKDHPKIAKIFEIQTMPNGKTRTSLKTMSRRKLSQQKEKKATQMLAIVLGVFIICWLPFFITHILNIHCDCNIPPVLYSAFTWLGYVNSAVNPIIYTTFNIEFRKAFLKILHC
Sequence (P63096 2-354 partner limits assumed): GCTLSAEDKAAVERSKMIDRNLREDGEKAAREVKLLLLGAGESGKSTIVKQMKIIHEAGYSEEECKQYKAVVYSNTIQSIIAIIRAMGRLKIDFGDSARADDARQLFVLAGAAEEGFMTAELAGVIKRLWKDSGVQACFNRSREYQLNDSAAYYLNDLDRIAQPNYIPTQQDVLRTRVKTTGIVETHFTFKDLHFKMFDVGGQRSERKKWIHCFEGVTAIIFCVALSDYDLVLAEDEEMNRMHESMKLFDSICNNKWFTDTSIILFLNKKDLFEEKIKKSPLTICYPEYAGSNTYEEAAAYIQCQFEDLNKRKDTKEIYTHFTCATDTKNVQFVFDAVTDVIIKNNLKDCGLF
Sequence (P62873 2-340 partner limits assumed): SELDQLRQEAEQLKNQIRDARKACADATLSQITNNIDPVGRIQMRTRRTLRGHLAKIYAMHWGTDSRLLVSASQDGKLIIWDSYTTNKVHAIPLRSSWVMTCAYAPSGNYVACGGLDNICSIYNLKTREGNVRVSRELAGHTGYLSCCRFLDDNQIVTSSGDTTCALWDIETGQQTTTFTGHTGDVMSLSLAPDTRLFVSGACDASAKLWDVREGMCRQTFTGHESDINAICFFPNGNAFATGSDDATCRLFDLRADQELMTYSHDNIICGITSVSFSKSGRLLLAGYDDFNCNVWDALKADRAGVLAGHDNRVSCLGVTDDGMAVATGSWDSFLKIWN
Sequence (P59768 2-68 partner limits assumed): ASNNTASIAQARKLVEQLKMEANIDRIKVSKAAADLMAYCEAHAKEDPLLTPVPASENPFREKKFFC

Row | Gi1 Activation Emax | Compound
1 | low efficacy | CC1Cc2ccccc2N1C(=O)c1nc2ccccc2s1 (stereo not shown) [Compound 2, reference compound]
2 | fully efficacious | CN(CCCCNC(=O)c1ccc2scnc2c1)[C@@H]1Cc2cccc3[nH]c(=O)n(c23)C1 [Compound 8]

same assay, conditions: Gi1 Activation EC50, 30 min; hD2R in HEK293 cells

Row | Compound | EC50
3 | CC1Cc2ccccc2N1C(=O)c1nc2ccccc2s1 (stereo not shown) [Compound 2, reference compound] | 39.7 ± 39.7 nM
4 | CN(CCCCNC(=O)c1ccc2scnc2c1)[C@@H]1Cc2cccc3[nH]c(=O)n(c23)C1 [Compound 8] | 144 ± 52.6 nM

The next lines start with the values.

Row | EC50 | Compound
5 | 301 ± 147 nM | CN(CCCCNC(=O)c1nc2ccccc2s1)[C@@H]1Cc2cccc3[nH]c(=O)n(c23)C1 [Compound 9]
6 | 184 ± 63.6 nM | CN(CC[C@@H]1C[C@H]1CNC(=O)c1cc2ccccc2[nH]1)[C@@H]1Cc2cccc3[nH]c(=O)n(c23)C1 [Compound 20]
7 | 129 ± 56.3 nM | CN(C[C@@H]1C[C@H]1CCNC(=O)c1cc2ccccc2[nH]1)[C@@H]1Cc2cccc3[nH]c(=O)n(c23)C1 [Compound 19]

same assay, conditions: HEK293, read-out: Gi1 Activation Emax

Row | Compound | Emax
8 | CC1Cc2ccccc2N1C(=O)c1nc2ccccc2s1 (stereo not shown) [Compound 2, reference compound] | 8.1 ± 8.2%
9 | CN(CCCCNC(=O)c1ccc2scnc2c1)[C@@H]1Cc2cccc3[nH]c(=O)n(c23)C1 [Compound 8] | 108 ± 7.3%

The next lines start with the values.

Row | Emax | Compound
10 | 85.1 ± 8.6% | CN(CCCCNC(=O)c1nc2ccccc2s1)[C@@H]1Cc2cccc3[nH]c(=O)n(c23)C1 [Compound 9]
11 | 72.4 ± 4.6% | CN(CC[C@@H]1C[C@H]1CNC(=O)c1cc2ccccc2[nH]1)[C@@H]1Cc2cccc3[nH]c(=O)n(c23)C1 [Compound 20]
12 | 57.6 ± 4.9% | CN(C[C@@H]1C[C@H]1CCNC(=O)c1cc2ccccc2[nH]1)[C@@H]1Cc2cccc3[nH]c(=O)n(c23)C1 [Compound 19]
13 | 51 ± 4.4% | CN(CCCCNC(=O)c1cc2ccccc2[nH]1)[C@@H]1Cc2cccc3[nH]c(=O)n(c23)C1 [Compound 1]

target: hD2R (D2SR), GoA activation (Homo sapiens, UniProt P14416); test: cell-based; details: GoA Activation EC50, 30 min; hD2R in HEK293 cells
Sequence (P14416 1-414 isoform P14416-2): as the sequence (P14416 1-414 isoform P14416-2) above
Sequence (P09471 2-354 partner limits assumed): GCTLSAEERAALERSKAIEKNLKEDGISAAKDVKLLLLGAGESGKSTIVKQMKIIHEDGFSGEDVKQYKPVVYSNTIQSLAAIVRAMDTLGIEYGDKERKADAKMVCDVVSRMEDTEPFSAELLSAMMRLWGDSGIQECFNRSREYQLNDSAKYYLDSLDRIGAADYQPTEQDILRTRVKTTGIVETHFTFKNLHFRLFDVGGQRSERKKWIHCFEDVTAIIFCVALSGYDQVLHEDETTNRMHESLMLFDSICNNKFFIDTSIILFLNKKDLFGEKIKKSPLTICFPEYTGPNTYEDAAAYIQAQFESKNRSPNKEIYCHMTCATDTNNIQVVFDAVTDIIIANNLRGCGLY
Sequence (P62873 2-340 partner limits assumed): as the sequence (P62873 2-340 partner limits assumed) above
Sequence (P59768 2-68 partner limits assumed): as the sequence (P59768 2-68 partner limits assumed) above

Row | Compound | EC50
14 | CC1Cc2ccccc2N1C(=O)c1nc2ccccc2s1 (stereo not shown) [Compound 2, reference compound] | 61.1 ± 48.8 nM
15 | CN(CCCCNC(=O)c1ccc2scnc2c1)[C@@H]1Cc2cccc3[nH]c(=O)n(c23)C1 [Compound 8] | 7.3 ± 3.6 nM

Further lines, results first:

Row | EC50 | Compound
16 | 117 ± 59 nM | CN(CCCCNC(=O)c1nc2ccccc2s1)[C@@H]1Cc2cccc3[nH]c(=O)n(c23)C1 [Compound 9]
17 | 103 ± 28.2 nM | CN(CC[C@@H]1C[C@H]1CNC(=O)c1cc2ccccc2[nH]1)[C@@H]1Cc2cccc3[nH]c(=O)n(c23)C1 [Compound 20]
18 | 1 ± 0.5 nM | CN(C[C@@H]1C[C@H]1CCNC(=O)c1cc2ccccc2[nH]1)[C@@H]1Cc2cccc3[nH]c(=O)n(c23)C1 [Compound 19]

same assay, conditions: HEK293, read-out: GoA Activation Emax

Row | Compound | Emax
19 | CC1Cc2ccccc2N1C(=O)c1nc2ccccc2s1 (stereo not shown) [Compound 2, reference compound] | 31.9 ± 7%
20 | CN(CCCCNC(=O)c1ccc2scnc2c1)[C@@H]1Cc2cccc3[nH]c(=O)n(c23)C1 [Compound 8] | 92.1 ± 7.2%

Other lines, results leading:

Row | Emax | Compound
21 | 75.5 ± 7.8% | CN(CCCCNC(=O)c1nc2ccccc2s1)[C@@H]1Cc2cccc3[nH]c(=O)n(c23)C1 [Compound 9]
22 | 80.3 ± 3.8% | CN(CC[C@@H]1C[C@H]1CNC(=O)c1cc2ccccc2[nH]1)[C@@H]1Cc2cccc3[nH]c(=O)n(c23)C1 [Compound 20]
23 | 74 ± 5.4% | CN(C[C@@H]1C[C@H]1CCNC(=O)c1cc2ccccc2[nH]1)[C@@H]1Cc2cccc3[nH]c(=O)n(c23)C1 [Compound 19]

target: hD2R (D2SR), cAMP inhibition (Homo sapiens, UniProt P14416); test: cell-based; details: HEK293, read-out: cAMP Inhibition Emax
Sequence (P14416 1-414 isoform P14416-2): as the sequence (P14416 1-414 isoform P14416-2) above

Row | Compound | Emax
24 | CC1Cc2ccccc2N1C(=O)c1nc2ccccc2s1 (stereo not shown) [Compound 2, reference compound] | 58.5 ± 30.2%
25 | CN(CCCCNC(=O)c1ccc2scnc2c1)[C@@H]1Cc2cccc3[nH]c(=O)n(c23)C1 [Compound 8] | 95.4 ± 4.7%

The next lines start with the values.

Row | Emax | Compound
26 | 84 ± 6.2% | CN(CCCCNC(=O)c1nc2ccccc2s1)[C@@H]1Cc2cccc3[nH]c(=O)n(c23)C1 [Compound 9]
27 | 59.8 ± 1.5% | CN(CC[C@@H]1C[C@H]1CNC(=O)c1cc2ccccc2[nH]1)[C@@H]1Cc2cccc3[nH]c(=O)n(c23)C1 [Compound 20]
28 | 60.5 ± 1.5% | CN(C[C@@H]1C[C@H]1CCNC(=O)c1cc2ccccc2[nH]1)[C@@H]1Cc2cccc3[nH]c(=O)n(c23)C1 [Compound 19]

same assay, conditions: cAMP Inhibition EC50, 30 min; hD2R in HEK293 cells

Row | Compound | EC50
29 | CC1Cc2ccccc2N1C(=O)c1nc2ccccc2s1 (stereo not shown) [Compound 2, reference compound] | 22.9 ± 19 nM
30 | CN(CCCCNC(=O)c1ccc2scnc2c1)[C@@H]1Cc2cccc3[nH]c(=O)n(c23)C1 [Compound 8] | 5.2 ± 1.8 nM

Further lines, results first:

Row | EC50 | Compound
31 | 79.1 ± 31.7 nM | CN(CCCCNC(=O)c1nc2ccccc2s1)[C@@H]1Cc2cccc3[nH]c(=O)n(c23)C1 [Compound 9]
32 | 81.1 ± 13.1 nM | CN(CC[C@@H]1C[C@H]1CNC(=O)c1cc2ccccc2[nH]1)[C@@H]1Cc2cccc3[nH]c(=O)n(c23)C1 [Compound 20]
33 | 6 ± 1.1 nM | CN(C[C@@H]1C[C@H]1CCNC(=O)c1cc2ccccc2[nH]1)[C@@H]1Cc2cccc3[nH]c(=O)n(c23)C1 [Compound 19]

target: hD2R (D2SR), β-arrestin 2 recruitment (Homo sapiens, UniProt P14416); test: cell-based; type: cell-based; details: not given
Sequence (P14416 1-414 isoform P14416-2): as above
Sequence (P32121 whole entry partner): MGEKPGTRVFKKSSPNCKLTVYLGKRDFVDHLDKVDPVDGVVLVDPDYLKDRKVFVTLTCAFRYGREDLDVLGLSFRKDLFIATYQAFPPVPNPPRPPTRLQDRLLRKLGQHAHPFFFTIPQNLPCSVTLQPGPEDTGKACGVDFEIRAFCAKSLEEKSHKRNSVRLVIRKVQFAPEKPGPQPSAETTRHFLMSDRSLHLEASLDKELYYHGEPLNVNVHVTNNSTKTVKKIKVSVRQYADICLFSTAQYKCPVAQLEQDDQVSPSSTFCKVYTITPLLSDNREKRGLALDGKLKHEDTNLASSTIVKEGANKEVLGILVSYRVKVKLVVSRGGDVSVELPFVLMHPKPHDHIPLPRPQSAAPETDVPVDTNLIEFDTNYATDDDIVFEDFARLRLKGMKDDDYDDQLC

Row | EC50 | Compound
34 | 794 ± 711 nM | CN(CCCCNC(=O)c1nc2ccccc2s1)[C@@H]1Cc2cccc3[nH]c(=O)n(c23)C1 [Compound 9]
35 | 208 ± 85.8 nM | CN(CC[C@@H]1C[C@H]1CNC(=O)c1cc2ccccc2[nH]1)[C@@H]1Cc2cccc3[nH]c(=O)n(c23)C1 [Compound 20]
36 | 80.5 ± 35.7 nM | CN(C[C@@H]1C[C@H]1CCNC(=O)c1cc2ccccc2[nH]1)[C@@H]1Cc2cccc3[nH]c(=O)n(c23)C1 [Compound 19]
37 | 208 ± 173 nM | CN(CCCCNC(=O)c1ccc2scnc2c1)[C@@H]1Cc2cccc3[nH]c(=O)n(c23)C1 [Compound 8]

same assay, conditions: 30 min; hD2R in HEK293 cells; normalized to quinpirole Emax

Row | βArrestin2 Recruitment Emax | Compound
38 | low efficacy | CC1Cc2ccccc2N1C(=O)c1nc2ccccc2s1 (stereo not shown) [Compound 2, reference compound]

same assay, conditions: HEK293, read-out: βArrestin2 Recruitment Emax

Row | Emax | Compound
39 | 64.2 ± 25.6% | CN(CCCCNC(=O)c1nc2ccccc2s1)[C@@H]1Cc2cccc3[nH]c(=O)n(c23)C1 [Compound 9]
40 | 26 ± 2.1% | CN(CC[C@@H]1C[C@H]1CNC(=O)c1cc2ccccc2[nH]1)[C@@H]1Cc2cccc3[nH]c(=O)n(c23)C1 [Compound 20]
41 | 30.5 ± 2.6% | CN(C[C@@H]1C[C@H]1CCNC(=O)c1cc2ccccc2[nH]1)[C@@H]1Cc2cccc3[nH]c(=O)n(c23)C1 [Compound 19]
42 | 76.4 ± 20.1% | CN(CCCCNC(=O)c1ccc2scnc2c1)[C@@H]1Cc2cccc3[nH]c(=O)n(c23)C1 [Compound 8]

tested on: hD2R; test: Pairwise bias factor calculation; type: cell-based, human; details: bias expressed as fold

Row | Compound | Go-protein bias over β-arrestin
43 | CN(CC[C@@H]1C[C@H]1CNC(=O)c1cc2ccccc2[nH]1)[C@@H]1Cc2cccc3[nH]c(=O)n(c23)C1 [Compound 20] | > 1000 fold
44 | CN(C[C@@H]1C[C@H]1CCNC(=O)c1cc2ccccc2[nH]1)[C@@H]1Cc2cccc3[nH]c(=O)n(c23)C1 [Compound 19] | > 1000 fold
45 | CN(CCCCNC(=O)c1cc2ccccc2[nH]1)[C@@H]1Cc2cccc3[nH]c(=O)n(c23)C1 [Compound 1] | ~30 fold

same assay, conditions: logarithmic scale; relative to quinpirole; 30 min data

Row | Compound | Bias factor GoA−βarrestin | Bias factor cAMP−βarrestin
46 | CN(CCCCNC(=O)c1nc2ccccc2s1)[C@@H]1Cc2cccc3[nH]c(=O)n(c23)C1 [Compound 9] | 0.55 | 0.56
47 | CN(CC[C@@H]1C[C@H]1CNC(=O)c1cc2ccccc2[nH]1)[C@@H]1Cc2cccc3[nH]c(=O)n(c23)C1 [Compound 20] | 2.50 | 1.39
48 | CN(C[C@@H]1C[C@H]1CCNC(=O)c1cc2ccccc2[nH]1)[C@@H]1Cc2cccc3[nH]c(=O)n(c23)C1 [Compound 19] | 3.44 | 1.93
49 | CN(CCCCNC(=O)c1cc2ccccc2[nH]1)[C@@H]1Cc2cccc3[nH]c(=O)n(c23)C1 [Compound 1] | 1.51 | –
50 | CN(CCCCNC(=O)c1ccc2scnc2c1)[C@@H]1Cc2cccc3[nH]c(=O)n(c23)C1 [Compound 8] | 1.21 | 1.05
51 | CN[C@@H]1Cc2cccc3[nH]c(=O)n(c23)C1 [Sumanirole, (R)-5,6-dihydro-5-(methylamino)-4H-imidazo[4,5,1-ij]quinolin-2(1H)-one, reference compound] | 0.15 | –0.10

same assay, conditions: logarithmic scale; relative to quinpirole; negative = GoA bias; 30 min data

Row | Compound | Bias factor Gi1–GoA activation
52 | CN(CCCCNC(=O)c1nc2ccccc2s1)[C@@H]1Cc2cccc3[nH]c(=O)n(c23)C1 [Compound 9] | 0.43
53 | CN(CC[C@@H]1C[C@H]1CNC(=O)c1cc2ccccc2[nH]1)[C@@H]1Cc2cccc3[nH]c(=O)n(c23)C1 [Compound 20] | 0.24
54 | CN(CCCCNC(=O)c1cc2ccccc2[nH]1)[C@@H]1Cc2cccc3[nH]c(=O)n(c23)C1 [Compound 1] | –0.98
55 | CN(CCCCNC(=O)c1ccc2scnc2c1)[C@@H]1Cc2cccc3[nH]c(=O)n(c23)C1 [Compound 8] | –0.44
56 | CN[C@@H]1Cc2cccc3[nH]c(=O)n(c23)C1 [Sumanirole, (R)-5,6-dihydro-5-(methylamino)-4H-imidazo[4,5,1-ij]quinolin-2(1H)-one, reference compound] | –0.54

tested on: D2R-expressing dopaminergic neurons in VTA and SNc (GIRK activity); test: not given; type: cell-based, mouse; details: not given

Row | Compound | ligand-induced change of holding current | effect of D2R antagonist on agonist-induced holding current change
57 | NCCc1ccc(O)c(O)c1 [dopamine] | produced an increase in the holding current | –
58 | CCN1CCCC1CNC(=O)c1cc(S(N)(=O)=O)ccc1OC (stereo not shown) [sulpiride] | – | inhibited the change in the holding current induced by either sumanirole or 11

same assay, conditions: whole cell voltage-clamp, −60 mV; 3 and 30 μM

Row | Compound | ligand-induced change of holding current
59 | CN[C@@H]1Cc2cccc3[nH]c(=O)n(c23)C1 [Sumanirole, (R)-5,6-dihydro-5-(methylamino)-4H-imidazo[4,5,1-ij]quinolin-2(1H)-one, reference compound] | produced an increase in the holding current
